Test results published in US20120022129A1, “Targeting of Histone Deacetylase 2, Protein Kinase CK2, and Nuclear Factor NRF2 For Treatment of Inflammatory Diseases” (priority 2008, published 2012).

How the values were obtained:
Assay type in all cases: cell-based, human
HDAC2 [1] = assay: HDAC2 cellular localization in H292 cells (immunofluorescence); details: acrolein 50 μM, 1 h
Protocol: (§1) A) H292 cells cultured on 8-well chamber slides were treated with 2.5% CSE for 0.5 h or 50 μM Acrolein for 1 h, washed and fixed with 4% PFA. Slides were incubated with HDAC2 and α-tubulin antibodies overnight at […]. Slides were mounted with antifade mounting solution and images analysed by an Olympus inverted microscope. B) H292 cells were transfected with plasmid vector (Ctrl V) or flag-tagged WT HDAC2 (1-488) for 24 h with lipofectamine 2000. Cells were treated with 2.5% CSE for 0.5 h and flag proteins immunoprecipitated using M2 anti-flag antibodies overnight at 4° C. HDAC1 and C) p53 interaction were determined by western blot. D) H292 cells were transfected with plasmid vector (Ctrl V), flag-tagged WT HDAC2 (1-488) or S^394/^411/^422/^424A and 1-400 amino acid HDAC2 mutants for 24 h with lipofectamine 2000. […] Levels of HDAC2 interaction with HDAC1 were determined by western blotting using specific antibodies. […] Levels of phospho-serine and HDAC2 interaction with SAP30, RbAp46/48, MBD3 and p65 were determined by western blotting using specific antibodies respectively. […] Levels of HDAC1 and p65 binding to immunoprecipitated flag-tagged HDAC2 was determined by western blotting. […] Deacetylase activity of immunoprecipitated HDAC2 was determined using a specific HDAC2 deacetylase activity kit. Data expressed as mean±SEM (n=3). *** P<0.001 significant compared to control treatments.

HDAC2 [2] = assay: Co-immunoprecipitation of flag-tagged HDAC2 with binding partners in H292 cells; details: H292, flag-tagged WT HDAC2
Protocol: FIG. 16: HDAC2 serine phosphorylation is associated with increased interaction with catalytic subunits of protein kinase CK2 in response to CSE. A) Bronchial epithelial H292 cells transfected with either a control vector (control V) or flag-tagged WT HDAC2 were treated with 2.5% CSE for 0.5 h. […] C) Bronchial epithelial H292 cells transfected with flag-tagged WT HDAC2 were treated with either 2.5% CSE for 0.5 h, 25 or 50 μM Acrolein for 1 h and 200 μM H202 for 0.5 and 2 h respectively.
A) H292 cells cultured on 8-well chamber slides were treated with 2.5% CSE for 0.5 h or 50 μM Acrolein for 1 h, washed and fixed with 4% PFA. Slides were incubated with HDAC2 and α-tubulin antibodies overnight at […]. Slides were mounted with antifade mounting solution and images analysed by an Olympus inverted microscope. B) H292 cells were transfected with plasmid vector (Ctrl V) or flag-tagged WT HDAC2 (1-488) for 24 h with lipofectamine 2000. Cells were treated with 2.5% CSE for 0.5 h and flag proteins immunoprecipitated using M2 anti-flag antibodies overnight at 4° C. HDAC1 and C) p53 interaction were determined by western blot. D) H292 cells were transfected with plasmid vector (Ctrl V), flag-tagged WT HDAC2 (1-488) or S^394/^411/^422/^424A and 1-400 amino acid HDAC2 mutants for 24 h with lipofectamine 2000. Cells were then exposed to 2.5% CSE for 0.5 h. Levels of HDAC2 interaction with HDAC1 were determined by western blotting using specific antibodies. E) H292 cells were transfected with flag-tagged WT HDAC2 (1-488) for 24 h with lipofectamine 2000. […] Levels of phospho-serine and HDAC2 interaction with SAP30, RbAp46/48, MBD3 and p65 were determined by western blotting using specific antibodies respectively. […] Levels of HDAC1 and p65 binding to immunoprecipitated flag-tagged HDAC2 was determined by western blotting. […] Deacetylase activity of immunoprecipitated HDAC2 was determined using a specific HDAC2 deacetylase activity kit. Data expressed as mean±SEM (n=3). *** P<0.001 significant compared to control treatments.

HDAC2 [3] = assay: Serine phosphorylation of immunoprecipitated HDAC2 in H292 cells
Protocol: FIG. 6: CSE induced CK2-dependent HDAC2 phosphorylation in bronchial epithelial and small airway epithelial cells. [A (i)] H292 cells were treated with CSE (2.5%) for 0.5, 1, 2 and 4 h. Immunoprecipitated HDAC2 was analyzed for phosphorylation of serine residues using specific phospho-serine antibodies by SDS polyacrylamide gel. CSE induced significant cyclical phosphorylation of HDAC2 on serine residues at 0.5, 1 and 4 h. [A (ii)] Relative density of phosphor-serine expression normalized to immunoprecipitated HDAC2. [B (i)] […] Immunoprecipitated HDAC2 from whole cell lysates was probed for phosphorylation of serine residues, CSE induced a dose-dependent increase in HDAC2 serine phosphorylation. [B (ii)] Relative density of phospho-serine expression normalized to immunoprecipitated HDAC2. (C) H292 cells were treated with or without specific CK2 inhibitor, TBB. for 1 h, cells were washed with sterile 1×PBS and then treated with freshly prepared CSE (2.5%) for 0.5 h, Immunoprecipitated HDAC2 was assayed for phosphorylation on serine residues. […] (D) Relative density of phosphor-serine expression normalized to immunoprecipitated HDAC2.
FIG. 14: Loss of Serine Sites S^394, S^422, S^424 Abrogates Cigarette Smoke Extract (CSE)-Induced Phosphatase-Independent HDAC2 Phosphorylation. A) Bronchial epithelial H292 cells were transfected with plasmid vector or flag-tagged WT HDAC2 (1-488) for 24 h using lipofectamine 2000 and then treated with or without 2.5% CSE for 0.5 h or B) 50 μM. acrolein for 1 h. Flag-tagged proteins were immunoprecipitated overnight and serine phosphorylation detected by western blots using phospho-serine antibodies. C) Flag-tagged WT HDAC2 was immunoprecipitated from whole cell lysates of H292 cells treated with 2.5% CSE for 0.5 h. Immunoprecipates were then washed and treated with 400 U of λ-phosphatase or buffer alone for 1 h at 30° C. Phosphorylation of serine sites were detected by western blots using anti-serine antibodies. D) H292 cells were transfected with plasmid vector, flag-tagged WT HDAC2 (1-488) or S394A, S394/411/422/424A and 1-400 aa HDAC2 mutants for 24 h with lipofectamine 2000. Cells were then treated with 2.5% CSE for 0.5 h. Serine phosphorylation of immunoprecipitated flag proteins was determined by western blot. E) Phosphatase activity was determined using non-radioactive assay system (Promega). H292 cells were treated with or without 2.5% CSE for 0.5, 2 and 6 h with serine/threonine […] (okadaic acid) used as a positive control. 5 μg protein was incubated with PP2A specific-peptide substrate RRA(pT)VA and reaction buffer for 15 minutes in a 96-well plate. Molybdate dye/additive mixture was added to stop the reaction and color allowed to develop for 15 minutes. Optical density of samples was determined using a microplate reader with a 630 nm filter.
FIG. 18: Protein Kinase CK2 Inhibitors Blocks CSE-Induced HDAC2 Phosphorylation. A) Bronchial epithelial H292 cells transfected with a flag-tagged WT HDAC2 plasmid were treated with 2.5% CSE for 0.5 h. […] B) Relative density of phospho-serine expression normalized to immunoprecipitated HDAC2. Data expressed as mean±SEM (n=3). *** P<0.001, ### P<0.001 significant compared to control treatments.
Cell lysate controls were used.

HDAC2 [4] = assay: Deacetylase activity of immunoprecipitated HDAC2 from H292 cells; details: NAC 2 mM 2 h, then CSE 2.5% 0.5 h
Protocol: as §1

SMILES | HDAC2 cellular localization (HDAC2 [1]) | HDAC2 CK2α′ binding (HDAC2 [2]; acrolein 25 and 50 μM, 1 h) | serine phosphorylation of flag-tagged full length HDAC2 (HDAC2 [3]; H292, acrolein 50 μM, 1 h) | CSE-induced decrease in HDAC2 deacetylase activity (HDAC2 [4]) | HDAC2 interaction with co-repressor proteins (SAP30, MBD3) and p65 (HDAC2 [2]; NAC 2 mM 2 h, then CSE 2.5% 0.5 h) | CSE-induced HDAC2 phosphorylation (HDAC2 [3]; H292, flag-tagged WT HDAC2, NAC 2 mM 2 h, then CSE 2.5% 0.5 h)
C=CC=O [acrolein] | remained localized to the nucleus | increased HDAC2 CK2α′ binding | significantly phosphorylated on serine residues |  |  | 
CC(=O)N[C@@H](CS)C(=O)O [NAC, N-acetyl cysteine] |  |  |  | rescued | blocked HDAC2 interaction with co-repressor proteins | Inhibiting CSE-induced HDAC 2 phosphorylation
